Experimental data reported in patent US11040019B2, “Selective estrogen-receptor modulators (SERMs) confer protection against photoreceptor degeneration” (THE UNITED STATES OF AMERICA, as represented by the …, priority 2016, dated 2021).

System: 661W photoreceptors
Test: Microglia-photoreceptor interaction assay: 661W viability (MTT) in conditioned media of LPS-stimulated BV2 microglia
Details: BV2 pre-treated before LPS 50 ng/ml; 661W exposed 24 h; TMX 3 and 5 μg/ml, raloxifene 0.3-3 μM, G-1 1 μM, GPR30 antagonist 100 nM
Protocol: 661W photoreceptors cultured in 96-well plate (4×10^4 cells/well) were exposed to conditioned media from LPS-stimulated (50 ng/ml) BV2 microglia (cultured in 6-well plate with a cell density of 4×10^5 cells/well) for 48 h. […] Cell viability of 661W photoreceptors were assessed using a MTT assay.
Murine microglial cell line (BV-2) cells and photoreceptor-like cell line (661W) were used in this study. BV-2 cells were plated in 6-well plates at the density of 4×10^5/well and cultured for 24 h in DMEM medium (Life Technologies Corporation, Grand Island, N.Y.) containing 5% heat inactivated FBS (Life Technologies Corporation, Grand Island, N.Y.) at 37° C. in a humidified atmosphere of 5% CO2. […] Cell viability of 661W photoreceptors were assessed using a MTT cell proliferation assay kits (ATCC, Manassas, Va.) following the manufacturer's specifications. […]
661W photoreceptors cultured in 96-well plate (4×10^4 cells/well) were exposed to conditioned media from LPS-stimulated (50 ng/ml) BV2 microglia (cultured in 6-well plate with a cell density of 4×10^5 cells/well) for 24 h. […] Cell viability of 661W photoreceptors were assessed using a MTT assay.

Structure (SMILES)	neurotoxicity of microglia-conditioned media to 661W photoreceptors (viability, MTT)
CC(=O)c1ccc2c(c1)C1C=CCC1C(c1cc3c(cc1Br)OCO3)N2 (centres unmarked) [G-1]	significantly reduced neurotoxicity
O=C(c1ccc(OCCN2CCCCC2)cc1)c1c(-c2ccc(O)cc2)sc2cc(O)ccc12 [raloxifene, [6-hydroxy-2-(4-hydroxyphenyl)-benzothiophen-3-yl]-[4-[2-(1-piperidyl)ethoxy]phenyl]-methanone]	significantly reduced neurotoxicity
